According to PubChem BioAssay (NCI):
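Each compound was tested at five concentrations against cells in 96-well plates for 48 hours. TGI denotes the concentration required for complete inhibition of growth.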

Tests used:
Assay in all cases: NCI anticancer screen, dose series, 48 h
786-0 renal = test system: 786-0 renal
A498 renal = test system: A498 renal
A549 NSCLC = test system: A549 NSCLC
ACHN renal = test system: ACHN renal
BT-549 breast = test system: BT-549 breast
CAKI-1 renal = test system: CAKI-1 renal
CCRF-CEM leukemia = test system: CCRF-CEM leukemia
COLO 205 colon = test system: COLO 205 colon
DU-145 prostate = test system: DU-145 prostate
EKVX NSCLC = test system: EKVX NSCLC
HCC-2998 colon = test system: HCC-2998 colon
HCT-116 colon = test system: HCT-116 colon
HCT-15 colon = test system: HCT-15 colon
HL-60(TB) leukemia = test system: HL-60(TB) leukemia
HOP-62 NSCLC = test system: HOP-62 NSCLC
HOP-92 NSCLC = test system: HOP-92 NSCLC
HS 578T breast = test system: HS 578T breast
HT29 colon = test system: HT29 colon
IGROV1 ovarian = test system: IGROV1 ovarian
KM12 colon = test system: KM12 colon
LOX IMVI melanoma = test system: LOX IMVI melanoma
M14 melanoma = test system: M14 melanoma
MALME-3M melanoma = test system: MALME-3M melanoma
MCF7 breast = test system: MCF7 breast
MDA-MB-435 = test system: MDA-MB-435
MDA-N = test system: MDA-N
MOLT-4 leukemia = test system: MOLT-4 leukemia
NCI-H23 lung = test system: NCI-H23 lung
NCI-H460 lung = test system: NCI-H460 lung
NCI-H522 lung = test system: NCI-H522 lung
OVCAR-3 ovarian = test system: OVCAR-3 ovarian
OVCAR-4 ovarian = test system: OVCAR-4 ovarian
OVCAR-5 ovarian = test system: OVCAR-5 ovarian
OVCAR-8 ovarian = test system: OVCAR-8 ovarian
PC-3 prostate = test system: PC-3 prostate
RPMI-8226 leukemia = test system: RPMI-8226 leukemia
RXF 393 renal = test system: RXF 393 renal
SF-268 CNS = test system: SF-268 CNS
SF-295 CNS = test system: SF-295 CNS
SF-539 CNS = test system: SF-539 CNS
SK-MEL-28 melanoma = test system: SK-MEL-28 melanoma
SK-MEL-5 melanoma = test system: SK-MEL-5 melanoma
SK-OV-3 ovarian = test system: SK-OV-3 ovarian
SN12C renal = test system: SN12C renal
SNB-19 CNS = test system: SNB-19 CNS
SNB-75 CNS = test system: SNB-75 CNS
SR leukemia = test system: SR leukemia
SW-620 colon = test system: SW-620 colon
TK-10 renal = test system: TK-10 renal
U251 CNS = test system: U251 CNS
UACC-257 melanoma = test system: UACC-257 melanoma
UACC-62 melanoma = test system: UACC-62 melanoma
UO-31 renal = test system: UO-31 renal

CN(C)CCNC(=O)c1ccc2nc3c(nc2c1)C(=O)c1ccccc1-3
TGI (786-0 renal): > 100 µM
TGI (A498 renal): > 100 µM
TGI (A549 NSCLC): > 100 µM
TGI (ACHN renal): > 100 µM
TGI (BT-549 breast): 41.3 µM
TGI (CAKI-1 renal): > 100 µM
TGI (CCRF-CEM leukemia): 39.3 µM
TGI (COLO 205 colon): > 100 µM
TGI (DU-145 prostate): > 100 µM
TGI (EKVX NSCLC): > 100 µM
TGI (HCC-2998 colon): > 100 µM
TGI (HCT-116 colon): > 100 µM
TGI (HCT-15 colon): > 100 µM
TGI (HL-60(TB) leukemia): 38.2 µM
TGI (HOP-62 NSCLC): > 100 µM
TGI (HOP-92 NSCLC): > 100 µM
TGI (HS 578T breast): > 100 µM
TGI (HT29 colon): 81.5 µM
TGI (IGROV1 ovarian): > 100 µM
TGI (KM12 colon): > 100 µM
TGI (LOX IMVI melanoma): 73.4 µM
TGI (M14 melanoma): > 100 µM
TGI (MALME-3M melanoma): 82.3 µM
TGI (MCF7 breast): > 100 µM
TGI (MDA-MB-435): 48.2 µM
TGI (MDA-N): 33.6 µM
TGI (MOLT-4 leukemia): 52.6 µM
TGI (NCI-H23 lung): > 100 µM
TGI (NCI-H460 lung): 38.6 µM
TGI (NCI-H522 lung): > 100 µM
TGI (OVCAR-3 ovarian): > 100 µM
TGI (OVCAR-4 ovarian): > 100 µM
TGI (OVCAR-5 ovarian): > 100 µM
TGI (OVCAR-8 ovarian): > 100 µM
TGI (PC-3 prostate): > 100 µM
TGI (RPMI-8226 leukemia): 63.3 µM
TGI (RXF 393 renal): > 100 µM
TGI (SF-268 CNS): > 100 µM
TGI (SF-295 CNS): > 100 µM
TGI (SF-539 CNS): > 100 µM
TGI (SK-MEL-28 melanoma): > 100 µM
TGI (SK-MEL-5 melanoma): 32.1 µM
TGI (SK-OV-3 ovarian): > 100 µM
TGI (SN12C renal): > 100 µM
TGI (SNB-19 CNS): > 100 µM
TGI (SNB-75 CNS): > 100 µM
TGI (SR leukemia): 54.7 µM
TGI (SW-620 colon): > 100 µM
TGI (TK-10 renal): > 100 µM
TGI (U251 CNS): 71.5 µM
TGI (UACC-257 melanoma): > 100 µM
TGI (UACC-62 melanoma): > 100 µM
TGI (UO-31 renal): > 100 µM
